Test results: patent US6737076B2, “Hypoallergenic composition containing tolerogenic peptides” (Nestec S.A., priority 1999, dated 2004)

Assays:
[1] = tested on: Balb/c mice; experiment: Oral tolerance induction mouse model, overall tolerogenic properties; assay type: in vivo; conditions: oral administration of synthetic peptides, 20 mcg/g of body weight
Description: (§1) Female Balb/c mice were obtained from IFFA-Crédo (L'Abresle, France). They were all bred and raised on a milk free diet. The mice were 3 weeks old at the start of the experiments.
(§2) Gavages were orally administered to the mice at age 22 days, by gastric feeding of native β-LG (5 mg/g of body weight), various amounts of TTH β-LG, or various amounts of the different β-LG peptidic fractions. Control mice were fed saline water. 5 days later, all mice were immunized β-LG and OVA (Ovalbumin, grade V, Sigma), as a non-related antigen for testing the specificity of the immune response, 21 days after systemic challenge, a Delayed Type Hypersensitivity (DTH) evaluation was done by duplicate thickness measures of the left, rear footpad prior to, and following, immunization with β-LG.
(§3) 24 hours after DTH immunization, individual increases in foot pad thickness of those injected the day before were measured. […] Specific IgE against β-LG and against OVA were determined both in seric and intestinal samples.
Qualitative responses of the tolerogenic properties generated from feeding the different fraction groups at two different concentrations (0.5 or 0.125 mg/g of body weight) were evaluated. Induction or absence of induction of tolerogenic responses to β-LG has been determined by the statistical significance of the immune response. […]

[2] = tested on: β-LG epitopes; experiment: ELISA inhibition, β-LG IgG binding capacity (residual β-LG epitopes, antigenicity)
Description: An ELISA inhibition was used to determine β-LG epitopes in β-LG hydrolysate and in β-LG fractions. β-lactoglobulin titers were calculated from a 5-fold dilution β-LG standard curve run on each plate.

[3] = tested on: anti-β-LG IgE; experiment: Seric anti-β-LG IgE by ELISA after oral tolerance induction and immunization; assay type: in vivo, mice; conditions: synthetic peptides, 20 mcg/g of body weight; control 3.39
Description: as §1, §2, §3
Serum and intestinal fluid dilutions were assayed in duplicate for anti-β-LG and anti-OVA IgE antibodies by ELISA. […] Titers were determined by calculating the dilution of the sample that gave twice the absorbance of the negative control. Titers were expressed as the log10 of the reciprocal of the dilution. […]

[4] = tested on: GLM; experiment: Lymphocyte proliferation stimulation index (GLM) after oral peptide feeding; assay type: in vivo, mice; conditions: synthetic peptides, 20 mcg/g of body weight
Description: (§4) Spleen cell solutions were homogenized and purified. Cells were cocultured in the presence of β-LG or of phytohaemagglutinin A. (^3H)Tdr (Amersham, Zurich) was added in the final 6 hours of culture and the plates were harvested and analyzed by scintillation counting. Stimulation indices were calculated as the ratio of blank-subtracted test and control values expressed as the mean cpm (^3H)Tdr incorporation by triplicate cultures.
(§5) The tolerogenic peptides T6 and T17 contained in tolerogenic fraction F2 were synthetically prepared. T13 contained in a non tolerogenic fraction was also synthesized as a negative control. Oral tolerance induction of these peptides were tested in […] mice as described in example 1c) except that the dose is of 20 mcg/g of body weight.

[5] = tested on: Spleen cell; experiment: Splenocyte specific proliferation assay with β-LG ((3H)Tdr incorporation) from fed mice; assay type: in vivo; conditions: 20 mcg/g of body weight; for cellular tolerance (specific inhibition of lymphocyte proliferation), in words: oral administration of synthetic peptides; for Stimulation index (rate): synthetic peptides
Source text: FIG. 1 represents specific oral tolerance induction in mice fed once with either TTH β-LG, F2 or F(7+9). A: Humoral (dark bars) and mucosal (gray bars) anti-β-LG IgE response. B: β-LG-specific DTH response (●) are individual foot pad increments and (−) are means from 10 mice per group. C and D: Specific (β-LG) and non specific (PHA) proliferative responses of splenic cells. Splenic lymphocytes from mice fed with either saline (♦), TTH β-LG (▪), F2 (▴), or F (7+9) (●) were isolated and subsequently stimulated with decreasing concentrations of antigens. ^3H thymidine incorporation was measured after 120 hours of culture. (^3H)Tdr incorporation results were expressed in cpm, as a mean of triplicate cultures, the blank-subtracted mean was then plotted respectively against β-LG or PHA concentration.
24 hours after DTH immunization, individual increases in foot pad thickness of those injected the day before were measured. Differences between these two measurements were expressed in <thickness (millimeters) and used in group comparisons. Then, from all mice, blood samples were obtained, spleens were taken and pooled according to group of treatment. Splenocyte specific proliferation assays were performed for each group. Intestinal contents were individually collected. Serum and intestinal samples were rapidly frozen at −80° C., until assays. Specific IgE against β-LG and against OVA were determined both in seric and intestinal samples.
as §4, §5

Substance | tolerance induction / tolerogenic potential (in words) [1] | antigenicity (in words) [2] | tolerized anti-LG IgE/ control (tolerized value) [3] | Stimulation index (GLM) [4] | cellular tolerance (specific inhibition of lymphocyte proliferation), in words [5] | Stimulation index (rate) [5]
H2N-I-D-A-L-N-E-N-K-COOH (H-IDALNENK-OH) [T6] | high tolerogenic potential | very low antigenicity | 3.24/3.39 | 0.285 | induces a cellular tolerance | 0.53
H2N-V-L-V-L-D-T-D-Y-K,-K-COOH [T17] | high tolerogenic potential | very low antigenicity | 2.67/3.39 | 0.405 | induces a cellular tolerance | 0.305
